Test results from patent publication US11008290B2, “Halogenated quinoline derivatives as antimicrobial agents” (University of Florida Research Foundation, Incorporated, priority 2015, dated 2021).
In brackets after ≈: the same amount, converted by molar mass. Where two headings read alike, the source gives them in different places.

What was measured:
[1] = test system: MRSE (ATCC 35984) planktonic cells and biofilms; experiment: Calgary Biofilm Device (CBD) MBC/MBEC determination; assay type: cell-based, Staphylococcus epidermidis; details: for MBC: Staphylococcus epidermidis, planktonic killing, CBD, first value of cell
Protocol: (§1) Biofilm eradication experiments were performed using the Calgary Biofilm Device to determine MBC/MBEC values for various compounds of interest (Innovotech, product code: 19111). The Calgary device (96-well plate with lid containing 96 total pegs to establish biofilms; 1 peg/well) was inoculated with 125 μL of a mid-log phase culture diluted 1,000-fold in tryptic soy broth with 0.5% glucose (TSBG) to establish bacterial biofilms after incubation at 37° C. for 24 hours. The lid of the Calgary device was then removed, washed and transferred to another 96-well plate containing 2-fold serial dilutions of the test compounds (the “challenge plate”). The total volume of media with compound in each well in the challenge plate was 150 μL. The Calgary device was then incubated at 37° C. for 24 hours. The lid was then removed from the challenge plate and MBC/MBEC values were determined using different final assays. […] The MBC values were determined as the concentration giving a lack of visible bacterial growth (e.g., turbidity). For determination of MBEC values, the Calgary device lid (with attached pegs/treated biofilms) was transferred to a new 96-well plate containing 150 μL of fresh TSBG media in each well and incubated for 24 hours at 37° C. to allow viable biofilms to grow and disperse resulting in turbidity after the incubation period. […] In select experiments, treated pegs from the Calgary device were removed from lead biofilm eradicators after final incubation, sonicated for 30 minutes in PBS and plated out to determine biofilm cell killing (e.g., colony forming unit per milliliter, CFU/mL).

[2] = test system: methicillin-resistant Staphylococcus epidermidis (MRSE; ATCC 35984); experiment: Minimum inhibitory concentration (MIC) susceptibility assay, broth microdilution; assay type: cell-based; details: for MIC: read-out: MRSE MIC
Protocol: (§2) The minimum inhibitory concentration (MIC) for each compound was determined by the broth microdilution method as recommended by the Clinical and Laboratory Standards Institute (CLSI). In a 96-well plate, eleven two-fold serial dilutions of each compound were made in a final volume of 100 μL Luria Broth. Each well was inoculated with ˜10^5 bacterial cells at the initial time of incubation, prepared from a fresh log phase culture (OD600 of 0.5 to 1.0 depending on bacterial strain). […] The concentration range tested for each compound during this study was 0.10 to 100 μM. DMSO served as the vehicle and negative control in each microdilution MIC assay. DMSO was serially diluted with a top concentration of 1% v/v. Bacterial strains used: methicillin-resistant Staphylococcus aureus-2 (MRSA-2; clinical isolate from Shands Hospital in Gainesville, Fla.), methicillin-resistant Staphylococcus epidermidis (MRSE; ATCC 35984), vancomycin-resistant Enterococcus faecium (VRE, ATCC 700221).

[3] = test system: methicillin-resistant Staphylococcus aureus-2 (MRSA-2; clinical isolate); experiment: as above; assay type: cell-based
Protocol: as §2

[4] = test system: vancomycin-resistant Enterococcus faecium (VRE, ATCC 700221); experiment: as above; assay type: cell-based; details: read-out: VRE MIC
Protocol: as §2

[5] = test system: human red blood cells; experiment: Hemolysis assay; assay type: cell-based
Protocol: Freshly drawn human red blood cells (hRBC with ethylenediaminetetraacetic acid (EDTA) as an anticoagulant) were washed with Tris-buffered saline (0.01M Tris-base, 0.155M sodium chloride (NaCl), pH 7.2) and centrifuged for 5 minutes at 3500 rpm. The washing was repeated three times with the buffer. In 96-well plate, the test compounds were added to the buffer. […] The plate was then incubated for 1 hour at 37° C. After incubation, the plate is centrifuged for 5 minutes at 3500 rpm. Then 80 μL of the supernatant were transferred to another 96-well plate and the Optical Density (OD) was read at 405 nm. […] The percent of hemolysis was calculated as (OD405 of the compound-OD405 DMSO)/(OD405 Triton X-OD405 buffer).

[6] = test system: VRE (ATCC 700221) planktonic cells and biofilms; experiment: Calgary Biofilm Device (CBD) MBC/MBEC determination; assay type: cell-based, Enterococcus faecium; details: Enterococcus
Protocol: as §1

[7] = test system: MRSA-2 planktonic cells and biofilms; experiment: as above; assay type: cell-based, Staphylococcus aureus; details: for MBC: Staphylococcus aureus, MRSA
Protocol: as §1

[8] = test system: MRSA-2; experiment: Mechanistic investigations with metal(II)-cations (MIC assay with 200 μM metal salt); assay type: cell-based, Staphylococcus aureus; details: for MIC: Staphylococcus aureus
Protocol: as §2

[9] = Staphylococcus epidermidis, Table 3
[10] = Staphylococcus, MRSA, Table 3, at least three independent experiments, read-out: MRSA-2 MIC
[11] = Table 3, planktonic killing, CBD, first value of cell, footnote c = lowest concentration tested, read-out: VRE MBC
[12] = Table 3, planktonic killing, CBD, first value of MBC/MBEC cell, read-out: MRSA-2 MBC
[13] = Table 2, read-out: MRSE ATCC 35984 MBC
[14] = Staphylococcus epidermidis, Table 2, ATCC 35984
[15] = Staphylococcus, MRSA, Table 2, 2 to 6 independent experiments, read-out: MRSA-2 MIC
[16] = Table 2, planktonic killing, CBD, first value of MBC/MBEC cell, read-out: MRSA-2 Clinical Isolate MBC
[17] = Staphylococcus epidermidis, 18 h, Table 2, ATCC 35984
[18] = Table 2, planktonic killing, CBD, first value of cell, read-out: VRE ATCC 700221 MBC
[19] = MRSA-2, change in antibacterial activity according to MIC values
[20] = Staphylococcus, MRSA, read-out: MIC

MIC [2, 9] [µM] | MIC [3, 10] [µM] | MIC ([4]; Table 3) [µM] | Structure (SMILES) | MBC ([1]; Table 3, read-out: MRSE MBC) [µM] | % Haemolysis at 200 μM ([5]; human, 1 h, pH 7.2) [%] | MBC [6, 11] [µM] | MBC [7, 12] [µM] | also measured
0.39 (≈ 0.129 µg/mL) | 0.78 (≈ 0.258 µg/mL) | 0.78 (≈ 0.258 µg/mL) | CCc1ccc2c(Br)cc(Br)c(O)c2n1 [A-HQ-1] | 31.3 (≈ 10.4 µg/mL) | ≤1 | 1.5 (≈ 0.497 µg/mL) | 93.8 (≈ 31 µg/mL) | 
 |  |  | N#CC(C#N)=NNc1cccc(Cl)c1 [CCCP, carbonyl cyanide m-chlorophenyl hydrazone, reference compound] | 31.3 (≈ 6.4 µg/mL) |  |  | 31.3 (≈ 6.4 µg/mL) | MBC [1, 13]: 31.3 µM (≈ 6.4 µg/mL); MIC [2, 14]: 6.25 µM (≈ 1.28 µg/mL); MIC ([2]; Table 3): 6.25 µM (≈ 1.28 µg/mL); MIC [3, 15]: 3.13 µM (≈ 0.64 µg/mL); MIC ([3]; Table 3, at least three independent experiments, read-out: MRSA-2 MIC): 3.13 µM (≈ 0.64 µg/mL); % Haemolysis at 200 μM ([5]; Table 2, human red blood cells, 1 hour at 37° C.): 3.5%; % Haemolysis at 200 μM ([5]; Table 3, human red blood cells): 3.5%; MBC [7, 16]: 31.3 µM (≈ 6.4 µg/mL)
 |  |  | O=C(O)CN(CCN(CC(=O)O)CC(=O)O)CC(=O)O [EDTA, ethylenediaminetetraacetic acid, reference compound] | 1000 (≈ 292 µg/mL) |  |  | 2000 (≈ 584 µg/mL) | % Haemolysis at 200 μM ([5]; Table 3, human red blood cells): 3.0%
 |  |  | CCCCNCc1ccc2c(Br)cc(Br)c(O)c2n1 [HQ-2] |  |  |  |  | MIC ([8]; MRSA, read-out: MIC w/Cu^2+): 3.13 µM; MIC ([8]; MRSA, read-out: MIC w/Fe^2+): 3.13 µM; MIC ([8]; MRSA, read-out: MIC w/Zn^2+): 1.17 µM; MIC ([2]; Staphylococcus epidermidis): 3.13 µM (≈ 1.21 µg/mL); MIC ([3]; Staphylococcus, MRSA): 3.13 µM (≈ 1.21 µg/mL); MIC ([3]; Staphylococcus, MRSA, read-out: MRSA-2 MIC): 6.25 µM (≈ 2.43 µg/mL); MIC [4]: 3.13 µM (≈ 1.21 µg/mL); MBC ([6]; read-out: VRE ATCC 700221 MBC): 15.6 µM (≈ 6.05 µg/mL); MBC ([7]; read-out: MRSA-2 Clinical Isolate MBC): 46.9 µM (≈ 18.2 µg/mL)
 |  |  | Oc1c(Br)cc(Br)c2ccc(CNc3cccc(Cl)c3)nc12 [HQ-4] |  |  |  |  | MBEC:MBC ratio ([1]; MRSE 35984, CBD): ~1; MBC [1, 13]: 9.38 µM (≈ 4.15 µg/mL); MIC [2, 17]: 0.15 to 0.3 µM (≈ 0.0664 to 0.133 µg/mL); MIC [2, 14]: 0.3 µM (≈ 0.133 µg/mL); MIC [3, 15]: 1.17 µM (≈ 0.518 µg/mL); MIC ([4]; 18 h, Table 2, ATCC 700221): 0.39 to 0.78 µM (≈ 0.173 to 0.345 µg/mL); MIC ([4]; Table 2, ATCC 700221): 0.78 µM (≈ 0.345 µg/mL); MBC [6, 18]: 1.5 µM (≈ 0.664 µg/mL); MBC [7, 16]: 62.5 µM (≈ 27.7 µg/mL); MRSA-2 MBEC ([7]; Table 3, biofilm eradication, CBD, second value of MBC/MBEC cell): equipotent biofilm eradication activities
 |  |  | Oc1c(Br)cc(Br)c2ccc(CNc3cc(Cl)cc(Cl)c3)nc12 [HQ-5] |  |  |  |  | MBC [1, 13]: 1.5 µM (≈ 0.715 µg/mL); MIC [2, 17]: 0.15 to 0.3 µM (≈ 0.0715 to 0.143 µg/mL); MIC [2, 14]: 0.3 µM (≈ 0.143 µg/mL); MIC [3, 15]: 1.56 µM (≈ 0.744 µg/mL); MIC ([4]; 18 h, Table 2, ATCC 700221): 0.39 to 0.78 µM (≈ 0.186 to 0.372 µg/mL); MIC ([4]; Table 2, ATCC 700221): 0.39 µM (≈ 0.186 µg/mL); MBC [6, 18]: 2 µM (≈ 0.954 µg/mL); MBC [7, 16]: 62.5 µM (≈ 29.8 µg/mL)
 |  |  | Oc1c(Br)cc(Br)c2ccc(CNc3ccc(Br)cc3)nc12 [HQ-6] |  |  |  |  | Fold Δ (MIC w/Mg^2+) [8, 19]: insignificant changes in antibacterial activities; Fold Δ (MIC w/Zn^2+) [8, 19]: −6 fold; MIC ([8]; MRSA-2, 200 μM ammonium iron (II) sulfate hexahydrate, read-out: MIC w/Fe^2+): 9.38 µM; MIC ([8]; MRSA-2, 200 μM copper (II) sulfate, read-out: MIC w/Cu^2+): 1.13 µM; MIC ([8]; MRSA-2, 200 μM magnesium (II) sulfate, read-out: MIC w/Mg^2+): 3.13 µM; MIC ([8]; MRSA-2, 200 μM zinc (II) chloride, read-out: MIC w/Zn^2+): 0.78 µM; MBC [1, 13]: 5.9 µM (≈ 2.87 µg/mL); fold more potent antibacterial activities than vancomycin ([2]; MRSE, MIC, same assays): 5 fold; MIC [2, 17]: 0.15 to 0.3 µM (≈ 0.073 to 0.146 µg/mL); MIC [2, 14]: 0.15 µM (≈ 0.073 µg/mL); MIC [3, 15]: 3.13 µM (≈ 1.52 µg/mL); MIC [3, 20]: 4.69 µM (≈ 2.28 µg/mL); MIC ([4]; 18 h, Table 2, ATCC 700221): 0.39 to 0.78 µM (≈ 0.19 to 0.38 µg/mL); MIC ([4]; Table 2, ATCC 700221): 0.78 µM (≈ 0.38 µg/mL); MBC [6, 18]: 3.9 µM (≈ 1.9 µg/mL); MBEC:MBC ratio ([7]; MRSA-2, CBD): equipotent killing efficiencies; MBC [7, 16]: 125 µM (≈ 60.9 µg/mL)
 |  |  | NC(=O)c1cnccn1 [Pyrazinamide, reference compound] |  | ≤1 |  | > 2000 | 
1.56 (≈ 0.627 µg/mL) | 2.35 (≈ 0.945 µg/mL) | 3.13 (≈ 1.26 µg/mL) | CCCCCNCc1ccc2c(Br)cc(Br)c(O)c2n1 [RA-HQ-2] | 23.5 (≈ 9.45 µg/mL) | 87.9 | 15.6 (≈ 6.27 µg/mL) | 31.3 (≈ 12.6 µg/mL) | MIC [3, 20]: 3.13 µM (≈ 1.26 µg/mL)
0.3 (≈ 0.133 µg/mL) | 0.78 (≈ 0.345 µg/mL) | 0.78 (≈ 0.345 µg/mL) | Oc1c(Br)cc(Br)c2ccc(CNc3ccc(Cl)cc3)nc12 [RA-HQ-13] | 31.3 (≈ 13.9 µg/mL) | 17.6 | 1.5 (≈ 0.664 µg/mL) | 31.3 (≈ 13.9 µg/mL) | 
0.78 (≈ 0.417 µg/mL) | 4.69 (≈ 2.5 µg/mL) | 4.69 (≈ 2.5 µg/mL) | Oc1c(Br)cc(Br)c2ccc(CNc3ccc(I)cc3)nc12 [RA-HQ-14] | 46.9 (≈ 25 µg/mL) | 11.0 | 46.9 (≈ 25 µg/mL) | 250 (≈ 133 µg/mL) | 
0.2 (≈ 0.0974 µg/mL) | 1.56 (≈ 0.76 µg/mL) | 0.78 (≈ 0.38 µg/mL) | Oc1c(Br)cc(Br)c2ccc(CNc3cccc(Br)c3)nc12 [RA-HQ-15] | 31.3 (≈ 15.2 µg/mL) | 37.3 | 7.8 (≈ 3.8 µg/mL) | 188 (≈ 91.6 µg/mL) | 
0.59 (≈ 0.334 µg/mL) | 3.13 (≈ 1.77 µg/mL) | 1.56 (≈ 0.883 µg/mL) | Oc1c(Br)cc(Br)c2ccc(CNc3cc(Br)ccc3Br)nc12 [RA-HQ-17] | 188 (≈ 106 µg/mL) | 7.4 | 31.3 (≈ 17.7 µg/mL) | 750 (≈ 424 µg/mL) | 
4.69 (≈ 2.35 µg/mL) | > 100 | 9.38 (≈ 4.71 µg/mL) | Oc1c(I)cc(I)c2ccc(CNc3ccccc3)nc12 [RA-HQ-22] | 250 (≈ 126 µg/mL) | 3.0 | 31.3 (≈ 15.7 µg/mL) | > 1000 | 
